Reference: patent US10543185B2, “Method for treating idiopathic pulmonary fibrosis” (The University of Chicago, priority 2015, dated 2020)
“Also recorded” adds a separate entry of the source.

Experiments:
[1] = tested on: patients with idiopathic pulmonary fibrosis (IPF); details: previous reports (Martinez et al., N Engl J Med. 2014); cited from earlier work
[2] = tested on: patients with idiopathic pulmonary fibrosis (IPF); assay: PANTHER-IPF clinical trial cohort: secondary genotype-stratified survival analysis, NAC or PAN versus placebo; assay type: in vivo, human; details: for Composite Endpoint, %: 10% FVC decline, hospitalization or transplantation; for Treatment-Specific Composite Endpoint Risk, HR / Multivariable Cox interaction model coefficient, therapy term / Multivariable Cox interaction model coefficient, SNP*therapy interaction term: adjusted for age, gender; for Treatment-Specific Composite Endpoint Risk, HR: FVC (% predicted) and DLCO (% predicted); for Multivariable Cox interaction model coefficient, therapy term / Multivariable Cox interaction model coefficient, SNP*therapy interaction term: composite endpoint-free survival, FVC and DLCO; for Progression-Free Survival HR (95% CI) / Hospitalization-Free Survival HR (95% CI): NAC vs placebo
From the text: Single nucleotide polymorphisms (SNPs) within TOLLIP and MUC5B are associated with idiopathic pulmonary fibrosis (IPF) susceptibility and survival. Both genes play critical roles in lung host defense, a process that can be influenced by oxidative stress and modulated by N-acetylcysteine (NAC). Applicants set out to determine whether SNPs within TOLLIP and MUC5B modify the efficacy of NAC therapy in patients with IPF. To achieve this, secondary analysis was completed of the PANTHER-IPF clinical trial (n=154) and an independent replication cohort (n=405) composed of patients from the INSPIRE clinical trial and University of Chicago. SNPs within TOLLIP (rs5743890/rs5743894/rs5743854/rs3750920) and MUC5B ([…]) were genotyped. Multivariable Cox regression with interaction analysis was performed followed by genotype-stratified models for significant interaction SNPs to determine genotype-specific survival associated with NAC therapy. A composite endpoint of death, FVC decline, hospitalization or transplantation was used.
The PANTHER cohort consists of individuals enrolled in the IPFnet randomized clinical trial comparing three treatments: prednisone/azathioprine/N-acetylcysteine (PAN) combination therapy, N-acetylcysteine (NAC) monotherapy and placebo. […] Enrollment resumed for the NAC and placebo arms from January to July 2012, with study completion in 2013. Clinical and genetic data for patients providing informed consent to genetic testing were used to conduct the analysis. Patients were followed for up to 72 weeks after randomization.
(§1) To minimize the effects of population stratification, only participants that self-declared a non-Hispanic white ethnicity were included in the analysis. Demographic and clinical information extracted from the datasets included age, gender, race/ethnicity, treatment arm, pulmonary function testing (PFT) including forced vital capacity (FVC) and diffusion capacity for carbon monoxide (DLCO) and outcomes, including death, >10% decline in FVC, hospitalization and lung transplantation.
The primary analysis tested whether statistical interaction was present between SNPs of interest and NAC therapy with regard to composite endpoint-free survival, defined as time from trial enrollment to death, ≥10% FVC decline, hospitalization or transplantation. Interaction was formally tested with a multivariable Cox regression model that included the following variables: SNP genotype, NAC therapy, and a SNP*NAC interaction term, age, gender, FVC (% predicted) and DLCO (% predicted). Statistical interaction was considered present when the Wald z-statistic for SNP*NAC interaction term corresponded to a p-value <0.01, which adjusts for multiple testing by Bonferroni correction. Interaction detected by this method was then further explored by constructing genotype-stratified multivariable Cox models to determine genotype-specific endpoint risk associated with NAC therapy. Based on SNP distributions, an additive allelic model was assumed for rs3750920 (TOLLIP) and a dominant model for rs5743890 (TOLLIP), rs5743894 (TOLLIP), rs5743854 (TOLLIP) and rs35705950 (MUC5B). Each model was checked to ensure that the proportional hazards assumption was met.
Of the 341 patients enrolled in the PANTHER trial, 315 self-reported a non-Hispanic white ethnicity (FIG. 2). Of those 315 individuals, 154 consented to genetic testing and were included in the primary analysis. Among genotyped patients, fifty-four patients received placebo therapy and […] patients received NAC therapy. Baseline demographic and clinical characteristics between non-Hispanic white genotyped (n=154) and non-genotyped (n=161) patients stratified by treatment group are shown in Table 1. […]

[3] = tested on: patients with idiopathic pulmonary fibrosis (IPF); assay: Independent replication cohort (INSPIRE trial and University of Chicago): NAC versus no NAC therapy, genotype-stratified; assay type: in vivo, human; details: for Replication cohort multivariate Cox interaction model coefficient, NAC Therapy term: FVC, DLCO, prednisone use, azathioprine use and study cohort; for Replication cohort multivariate Cox interaction model coefficient, SNP*NAC interaction term: adjusted as in the Table 9 footnote; for Genotype-stratified Composite Endpoint Risk Associated with NAC Therapy, HR: vs no NAC therapy
From the text: The INSPIRE cohort consists of individuals enrolled in the industry-sponsored randomized clinical trial comparing interferon gamma-1b to placebo. […] Clinical and genetic data for patients providing informed consent to genetic testing were used to conduct the analysis. Patients were followed for up to 170 weeks after randomization.
The University of Chicago (UChicago) cohort consists of individuals followed in the UChicago ILD clinic from 2007-2013 who provided informed consent to undergo DNA testing. Patients were followed from time of initial evaluation until death, lung transplantation, loss-to-follow up or time of censoring (Sep. 9, 2013). Vital status was determined using telephone interviews with family members and the social security death index. Patients participating in PANTHER and INSPIRE were removed from the UC cohort.
as §1
Hospitalization data were not available for patients in the replication cohort so composite endpoint-free survival was defined as time from trial enrollment (INSPIRE) or blood draw (UChicago) to death, ≥10% FVC decline or transplantation in those not receiving NAC therapy and time from NAC initiation to death, >10% FVC decline or transplantation in those receiving NAC therapy. Because follow-up time was longer for the UChicago compared to INSPIRE cohort, UChicago cohort survival time was censored at 170 weeks to allow for merging of the datasets. All statistical analysis was conducted using Stata (StataCorp. 2011. Release 12. College Station, Tex.).
Based on the findings above, interaction modeling was performed in an independent cohort between NAC therapy and rs3750920 (TOLLIP), rs5743894 (TOLLIP) and rs35705950 (MUC5B). Of the 771 non-Hispanic white individuals enrolled in the INSPIRE trial, DNA was available for 314. In the UChicago cohort, of 151 non-Hispanic white individuals with sequencing data, 91 had longitudinal PFT data and were included in the analysis. A summary of baseline demographic and clinical characteristics, along with genotype counts for the INSPIRE, UChicago and combined cohorts are shown in Table 8.

[4] = tested on: patients with idiopathic pulmonary fibrosis (IPF); details: trial stopped early; cited from earlier work
[5] = PANTHER genotyped patients, NAC arm (n = 60)
[6] = PANTHER non-genotyped patients, NAC arm (n = 61)
[7] = INSPIRE cohort, NAC recipients (n = 29)
[8] = UChicago cohort, NAC recipients (n = 18)
[9] = combined replication cohort, NAC recipients (n = 47)

For `CC(=O)N[C@@H](CS)C(=O)O` [NAC, (2R)-2-acetamido-3-sulfanylpropanoic acid], the “Benefit of therapy in patients with IPF, unselected by genotype” value [1] is given as “no benefit; also recorded: did not provide benefit; also recorded: ineffective”, the “Death, %” value [2, 5] is given as “(1.7) %” and the “FVC Decline ≥10%, %” value [2, 5] is given as “(18.3) %”. For the same molecule, the “Hospitalization, %” value [2, 5] was “(13.3) %”, the “Transplant, %” value [2, 5] was “(5) %” and the “Composite Endpoint, %” value ([2]; PANTHER genotyped patients, NAC arm (n = 60), death) was “(31.7) %”. For the same molecule, the “Death, %” value [2, 6] was “(4.9) %”, the “FVC Decline ≥10%, %” value [2, 6] was “(27.9) %” and the “Hospitalization, %” value [2, 6] was “(14.8) %”. The “Transplant, %” value [2, 6] was “(1.6) %”, the “Composite Endpoint, %” value ([2]; PANTHER non-genotyped patients, NAC arm (n = 61), death) was “(42.6) %” and the “Treatment-Specific Composite Endpoint Risk, HR” value ([2]; genotyped PANTHER patients) was 0.92. For the same molecule, the “Multivariable Cox interaction model coefficient, therapy term” value ([2]; model with rs3750920 (TOLLIP)) was 1.34, the “Multivariable Cox interaction model coefficient, therapy term” value ([2]; model with rs5743890 (TOLLIP)) was 0.17 and the “Multivariable Cox interaction model coefficient, therapy term” value ([2]; model with rs5743894 (TOLLIP)) was 0.45. The “Multivariable Cox interaction model coefficient, therapy term” value ([2]; model with rs35705950 (MUC5B)) was 0.91, the “Treatment-Specific Composite Endpoint Risk, HR” value ([2]; non-genotyped PANTHER patients) was 1.31 and the “Progression-Free Survival HR (95% CI)” value ([2]; rs3750920 (TOLLIP) CC genotype, death, 10% FVC decline or transplant) was 1.27 (0.21-7.55). For the same molecule, the “Hospitalization-Free Survival HR (95% CI)” value ([2]; rs3750920 (TOLLIP) CC genotype, death, hospitalization or transplant) was 3.74 (0.35-39.80), the “Hospitalization-Free Survival HR (95% CI)” value ([2]; rs3750920 (TOLLIP) CT genotype) was 0.45 (0.10-2.15) and the “Progression-Free Survival HR (95% CI)” value ([2]; rs3750920 (TOLLIP) CT genotype) was 0.63 (0.17-2.30). For the same molecule, the “Progression-Free Survival HR (95% CI)” value ([2]; rs3750920 (TOLLIP) TT genotype) was 0.09 (0.01-0.76), the “Multivariable Cox interaction model coefficient, SNP*therapy interaction term” value ([2]; rs3750920 (TOLLIP) interaction) was −1.47 and the “Multivariable Cox interaction model coefficient, SNP*therapy interaction term” value ([2]; rs5743890 (TOLLIP) interaction) was −1.17. The “Hospitalization-Free Survival HR (95% CI)” value ([2]; rs5743894 (TOLLIP) AA genotype) was 1.43 (0.44-4.70), the “Progression-Free Survival HR (95% CI)” value ([2]; rs5743894 (TOLLIP) AA genotype) was 1.68 (0.58-4.90) and the “Hospitalization-Free Survival HR (95% CI)” value ([2]; rs5743894 (TOLLIP) AG/GG genotype) was 0.21 (0.02-1.99). For the same molecule, the “Multivariable Cox interaction model coefficient, SNP*therapy interaction term” value ([2]; rs5743894 (TOLLIP) interaction) was −1.42, the “Hospitalization-Free Survival HR (95% CI)” value ([2]; rs35705950 (MUC5B) GG genotype) was 1.25 (0.15-10.30) and the “Progression-Free Survival HR (95% CI)” value ([2]; rs35705950 (MUC5B) GG genotype) was 3.72 (0.69-20.16). For the same molecule, the “Hospitalization-Free Survival HR (95% CI)” value ([2]; rs35705950 (MUC5B) GG/TT genotype as printed in Table 7 (text: GT or TT)) was 0.49 (0.15-1.58), the “Multivariable Cox interaction model coefficient, SNP*therapy interaction term” value ([2]; rs35705950 (MUC5B) interaction) was −1.40 and the “Composite Endpoint, %” value [3, 7] was “(48.3) %”. The “Death, %” value [3, 7] was “(20.7) %”, the “FVC Decline ≥10%, %” value [3, 7] was “(44.8) %” and the “Transplant, %” value [3, 7] was “(6.9) %”. For the same molecule, the “Composite Endpoint, %” value [3, 8] was “(72.2) %”, the “Death, %” value [3, 8] was “(72.2) %” and the “FVC Decline ≥10%, %” value [3, 8] was “(22.2) %”. The “Transplant, %” value [3, 8] was “(0) %”, the “Composite Endpoint, %” value [3, 9] was “(57.5) %” and the “FVC Decline ≥10%, %” value [3, 9] was “(36.2) %”. The “Transplant, %” value [3, 9] was “(4.3) %”, the “Replication cohort multivariate Cox interaction model coefficient, NAC Therapy term” value ([3]; model with rs3750920 (TOLLIP), adjusted for age, gender) was 1.37 and the “Replication cohort multivariate Cox interaction model coefficient, SNP*NAC interaction term” value ([3]; model with rs5743894 (TOLLIP), term printed as rs3750920*NAC interaction) was −0.40. For the same molecule, the “Replication cohort multivariate Cox interaction model coefficient, NAC Therapy term” value ([3]; model with rs5743894 (TOLLIP), adjusted for age, gender) was 0.54, the “Replication cohort multivariate Cox interaction model coefficient, NAC Therapy term” value ([3]; model with rs35705950 (MUC5B), adjusted for age, gender) was 1.24 and the “Unadjusted Kaplan-Meier survival among NAC recipients, rs3750920 TT genotype versus CC or CT genotype” value ([3]; replication cohort, FIG. 3, p=0.03) was “significantly better overall survival”. The “Genotype-stratified Composite Endpoint Risk Associated with NAC Therapy, HR” value ([3]; replication cohort, rs3750920 (TOLLIP) CC, adjusted for age, gender, FVC and DLCO) was 3.51, the “Genotype-stratified Composite Endpoint Risk Associated with NAC Therapy, HR” value ([3]; replication cohort, rs3750920 (TOLLIP) CT) was 2.27 and the “Genotype-stratified Composite Endpoint Risk Associated with NAC Therapy, HR” value ([3]; replication cohort, rs3750920 (TOLLIP) TT) was 0.23. The “Genotype-stratified Composite Endpoint Risk Associated with NAC Therapy, HR” value ([3]; replication cohort, rs35705950 (MUC5B) GG) was 3.15, the “Genotype-stratified Composite Endpoint Risk Associated with NAC Therapy, HR” value ([3]; replication cohort, rs35705950 (MUC5B) GT/TT) was 0.94 and the “Replication cohort multivariate Cox interaction model coefficient, SNP*NAC interaction term” value ([3]; rs3750920 (TOLLIP) interaction) was −0.86. For the same molecule, the “Replication cohort multivariate Cox interaction model coefficient, SNP*NAC interaction term” value ([3]; rs35705950 (MUC5B) interaction) was −1.30.

B1: interferon gamma-1b: study drug of the INSPIRE randomized clinical trial, compared to placebo (protein, UniProt P01579 24-161, looked up)
Interferon gamma: QDPYVKEAENLKKYFNAGHSDVADNGTLFLGILKNWKEESDRKIMQSQIVSFYFKLFKNFKDDQSIQKSVETIKEDMNVKFFNSNKKKRDDFEKLTNYSVTDLNVQRKAIHELIQVMAELSPAAKTGKRKRSQMLFRG
modifications: interferon gamma-1b
notes: study drug of the INSPIRE randomized clinical trial, compared to placebo
For B1, the “Benefit compared to placebo at interim analysis” value [4] is given as “no benefit”.
